{
  "source": "patent US6008190A",
  "about": "“Cobalt Schiff base compounds” (California Institute of Technology, priority 1995, dated 1999)",
  "key": {"Human a-thrombin": {"target": "T1, Human a-thrombin (Homo sapiens, UniProt P00734)", "T1 construct": "Human a-thrombin and the assay agent Spectrozyme; purchased American Diagnostica (Greenwich, Conn.); host or cells: purified blood product", "assay": "Thrombin inhibition assay, Spectrozyme TH hydrolysis at 406 nm", "format": "biochemical", "conditions": "for activity relative to control / thrombin activity after incubation: 0.1 μM thrombin; for activity relative to control: 2.5 mM or similar concentration, 24 hours room temperature, Co(II) compound incubated under inert atmosphere then exposed to air; for thrombin activity after incubation: 2.5 mM, 24 hours at room temperature, assayed at 25° C.", "procedure": "FIG. 1 depicts the inhibition of thrombin. 3.07×10^-9 M thrombin at 25C was assayed using Spectrozyme TH (American Diagnostics), and the reaction followed at 406 nm using a Hewlett Packard HP8452A diode array spectrophotometer with temperature control. All assays were performed in 10 mM Tris, 10 mM HEPES, 0.1% polyethylene glycol, 0.5 M NaCl, pH 7.8. The Co(III) carboxypropyl(NH3)2 (labeled as Co(carboxypropyl)) was coupled to the active site directed peptide NH2 -GGGdFPR-CO-NIH SEQ ID NO: 1 (labeled as peptide dFPR). The observed inhibition greatly exceeded Co(carboxypropyl)(NH3) )2, the peptide, and Co(III)acacen(NH3)2 Cl (labeled as Co(acacen)).\nN-(2-hydroxyethyl)piperazine-N'-2-ethanesulfonic acid (HEPES) was from J. T. Baker Phillipsburg, N.J.). Cobaltous acetate tetrahydrate was obtained from FM Science (Gibbstown, N.J.). Human a-thrombin and the assay agent Spectrozyme (H-D-hexahydrotyrosyl-L-alanyl-L-arginine-p-nitroaniline diacetate) were purchased from American Diagnostica (Greenwich, Conn.). Antithrombotic peptides were manufactured as amides by the Beckman Institute Biopolymer Synthesis group at Caltech using solid phase methods. […] was from Pharmacia (Uppsala, Sweden). Enzyme reactions were followed spectrophotometrically using a photodiode array spectrophotometer. Ultrafiltration materials were from Amicon (Beverly Mass.). HPLC used Vydac reverse phase columns. ^1 H NMR were obtained on a 300 MHz FT-NMR spectrometer. Solvents used include EM Omnisolve MeOH, Omnisolve […] passed over basic alumina to remove residual acid, Fluka (Bubcs. Switzerland) puriss. MeOH and dioxane, and Quantum Chemical (Tuscola, Ill.) absolute EtOH. Distilled water was prepared by a Barnistead Nanopure system. All other solvents were reagent trade.\nThrombin inhibition assay: As with any purified blood product, proper care was taken to avoid the transmission of blood-borne pathogens. Thrombin was taken as received (about 1 ml, at 30 μM in 0.75 M sodium chloride storage solution) and divided into 100 μL aliquots. Each aliquot was diluted to 10 ml. using clean. filtered (2 μm) aqueous 0.75 M NaCl and divided into 1 mL samples. Each sample was stored frozen at -80° C. until ready for use. The protein should not be stored at -20 ° C. as this is too close to the cutectic point for the thrombin-salt mixture and freeze-thaw cycling may damage the protein.\nAn assay buffer containing 10 mM Tris, 10 mM HEPES, 0.1% polyethylene glycol (PEG 8000) and 500 mM sodium chloride was prepared to pH 8. Following manufacturer's instructions, 5 ,μmole Spectrozyme TH was dissolved in 1.000 mL filtered nanopure water. A series of [Co^III (acacen)(NH3)2 ]Cl solutions was prepared by dissolving 16.6 mg of the compound in 0.75M NaCl and then diluting aliquots to a range of cobalt concentrations from 4.7 mM to 4.7 nM. Both of the purified materials were assayed.\nThrombin was preincubated with inhibitor in the kinetics buffer (total volume of thrombin, buffer, and inhibitor of […]) for the times specified in FIG. 1. After incubation, the substrate, spectrozyme TH was added (8 mL of 5 mM spectrozyme), and the thrombin-catalyzed hydrolysis rates were monitored at 406 nm. The final concentration of thrombin in the experiments was 3 nM, and the concentration of substrate was […]. The inhibitor concentrations are outlined in FIG. 1. The rates of hydrolysis were determined from the linear portion of the saturation-kinetics plots. The percent activity is determined by dividing the rate of spectrozyme hydrolysis with inhibitor by the rate of hydrolysis without inhibitor and multiplying by 100.\nA vial of thrombin prepared as above was thawed in warm water. 100 μL aliquots were added to 100 μL, samples of the cobalt acacen solutions. One 100 μL aliquot of thrombin solution was diluted with 100 μL 0.75M NaCl to be used as a control. Samples were incubated as needed before assay. […]"}, "Thermolysin [1]": {"target": "T2, Thermolysin (Bacillus thermoproteolyticus, UniProt P00800)", "T2 sequence (P00800 233-548)": "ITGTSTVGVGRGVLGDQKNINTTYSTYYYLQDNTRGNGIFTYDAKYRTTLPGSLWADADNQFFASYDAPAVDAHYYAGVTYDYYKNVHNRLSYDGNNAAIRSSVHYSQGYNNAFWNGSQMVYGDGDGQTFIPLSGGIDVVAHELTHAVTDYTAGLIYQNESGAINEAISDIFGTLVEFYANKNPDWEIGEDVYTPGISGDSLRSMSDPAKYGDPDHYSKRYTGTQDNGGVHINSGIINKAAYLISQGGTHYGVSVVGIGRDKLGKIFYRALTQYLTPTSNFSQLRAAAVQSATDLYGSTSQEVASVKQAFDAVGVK", "conditions": "incubated with 5 mM inhibitor, HEPES pH 7.0, thermolysin 5×10^-8 M, cobalt inhibitor 1.25×10^-5 M", "procedure": "Thermolysin (2,500,000 units, Calbiochem) was dissolved in 20 mL of Tris buffer (pH 7.2, 0.1 M, 2.5 M NaBr. 0.01 M CaCI2) and stored at 4° C.; enzyme concentration was determined by using E1%^280 =7.65 and a molecular weight of 34,600. This solution was further purified using gel filtration chromatography on an FPLC Using a Superdex 75 column (Pharmacia) equilibrated with 0.1 M Tris, 0.1 M NaBr, 0.01 CaCI, pH 7.2. This stock solution was stored at 4C. N-[3-(2-furyl)acryloyl]glycyl L-leuciniamide (FAGLA) was obtained from Sigma as the thermolysin substrate. A stock solution of FAGLA (4.0 mM) was prepared by dissolving the substrate in dimethylforthamide (DMF) and diluting it with buffer to a final concentration of 0.1 M Tris, 0.1 NaBr and 10 mM CaCl2, pH 7.0 (final concentration of DMF was 2.5%; sec Feder et al., Biochem. 9:2784-2791 (1970)). For all assays, the concentration of enzyme and substrate was 50 nM and 2.0 mM respectively. The peptidase activity of thermolysin was determined by following the decrease in absorption at 346 due to the enzymatic hydrolysis of FAGLA. Initial velocities were determined for ≤10% of the reaction.\nThermolysin (2×10^-5 mol) was incubated with [Co(III)acacen(NH3)2 ]Cl (5 mM) in HEPES buffer (pH 7.0, 0.01 M, 0.005 M CaCl2).\nStock solution of thermolysin was mixed with the cobalt compound dissolved in 0.1 M Tris, 0.1 M NaBr, 0.01 CaCl2, pH 7.2 (run buffer) to yield a final enzyme concentration of […] and a cobalt concentration of 2.5 mM. These solutions were incubated at 25C or 37C for several hours along with a control lacking cobalt compound. Periodically […] aliquots of these solutions were assayed for residual enzyme activity by their addition to a cuvette contain […] of FAGLA stock Solution, and following the absorption decrease at 346 nm as described above. All enzyme assays were performed at 25C."}, "Thermolysin [2]": {"target": "T2, Thermolysin", "description": "The resulting solution was transferred into the Tris running buffer using a PD-10 column (Pharmacia), and was characterized."}, "thrombin": {"target": "thrombin (Homo sapiens, UniProt P00734)", "conditions": "initial estimate for two separate samples", "procedure": "The [Co(III)acacen(NH3)2 ]CI experiments were repeated for a range of cobalt concentrations from 2.4 mM to 2.4 nM after at 12 hour incubation at 25C."}, "[3]": {"assay": "Axial ligand exchange of ammonia for imidazole", "format": "physicochemical", "conditions": "in water with excess imidazole, 25° C.", "description": "In a preferred embodiment, the cobalt compounds find use in the inhibition of proteins and enzymes of tumor cells. As outlined above, Co(III) \"acacen\" compounds can exchange an axial ligand for a different one by a dissociative mechanism with the slow loss of one axial ligand to form a five coordinate intermediate, followed by binding to another suitable ligand. For most cobalt complexes, ligand exchange is a slow process because there is a large loss of ligand field stabilization energy when a ligand is removed from an octahedral d^6 complex (see Huheey et al., Inorganic Chemistry: Principles of Structure and Reactivity, 4th Ed. HarperCollins. N.Y., chapter 13). Generally, the exchange is slow; for example, [Co(III)(acacen)(NH3)2 ]Cl in water with excess imidazole exchanges ammonia for imidazole with a half-life under an hour at 25° C., with the rate of exchange increasing with temperature. However, reduction to cobalt(II) puts an electron into the antibonding dz2 orbital, labilizing the axial ligands. Typical one-electronic reduction potentials with irreversible loss of an axial ligand are around -360 mV vs NHE, (Darbieu et al., Transition Met. Chem., 7:149 (1982)). This property may be exploited as a \"redox switch\" to control the activity of the cobalt compound. […]"}, "[4]": {"target": "T3, Bovine carbonic anhydrase (Bos taurus, UniProt P00921)", "T3 construct": "purchased Calbiochem", "T3 sequence (P00921 whole entry)": "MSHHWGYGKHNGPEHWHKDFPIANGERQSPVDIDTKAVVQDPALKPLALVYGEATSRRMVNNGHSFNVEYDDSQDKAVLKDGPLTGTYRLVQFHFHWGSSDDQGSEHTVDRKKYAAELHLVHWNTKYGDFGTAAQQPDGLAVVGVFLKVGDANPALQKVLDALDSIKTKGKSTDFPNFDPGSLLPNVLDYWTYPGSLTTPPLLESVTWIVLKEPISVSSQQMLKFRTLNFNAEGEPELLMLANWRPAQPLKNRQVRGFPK", "assay": "Inhibition of carbonic anhydrase, p-nitrophenylacetate substrate", "format": "biochemical", "conditions": "for % inhibition of CA: inert atmosphere, Tris pH 8", "procedure": "Bovine carbonic anhydrase (20 mg 6.7×10^-7 mol, Calbiochem) was dissolved in 0.5 mL Tris buffer (pH=8, 0.05 M). To this solution was added 30 mg of Co(II)hydroxypropyl acacen (30 mg, 7.6×10^-5 mol) dissolved in 0.5 mL of H2 O. This solution was incubated for 48 hours. The excess cobalt complex was separated from the protein using a PD-10 gel filtration column equilibrated with Tris buffer (pH 8, 0.05 M). This enzyme, which was incubated with the Co(III) complex, retained 100% of its activity.\nTwo samples of bovine carbonic anhydrase (30 mg, 1×10^-6 mol) were dissolved in 3 mL of degassed Tris buffer (pH 8, 0.05 M). To one of the samples was added Co(II)hydroxypropyl acacen (30 mg, 9×10^-5mol). The other sample of bovine carbonic anhydrase served as the control. The solutions were incubated under inert atmosphere (glove box) and a 1 mL aliquot was removed from each sample after 48 and 96 hours of incubation. The protein was then exposed to air and the excess Co(II)hydroxypropyl acacen separated from the protein using a PD-10 gel filtration column (Pharmacia) equilibrated with Tris buffer (pH 8, 0.05 M). The enzymatic activity of the protein was assayed using p-nitroplhenylacetate as the substrate (Pocker et al., Biochem. 6:668-678 (1967))."}},
  "note": "Like-named read-outs stand apart in the source and are kept apart here. Where a SMILES comes first, the peptide text is derived from it. [ ]: non-standard residue; d: D form.",
  "data": [
    {"compound": "N=C(N)NCCC[C@H](NC(=O)[C@@H]1CCCN1C(=O)[C@@H](Cc1ccccc1)NC(=O)CNC(=O)CNC(=O)CN)C(N)=O", "note": "[(Gly)3 dPhePioArg, reference compound] (H-GGG[dF]PR-NH2)", "values": [
      {"measurement": "Ki", "setting": "Human a-thrombin", "value": "~209", "unit": "µM"}
    ]},
    {"compound": "CC([O-])=CC(C)=NCCN=C(C)C=C(C)[O-].N.N.[Cl-].[Co+3]", "note": "[[Co(III)acacen(NH3)2]Cl]", "values": [
      {"measurement": "% inhibition", "setting": "Thermolysin [1]; 45 minutes incubation", "value": 46.2, "unit": "%"},
      {"measurement": "% inhibition", "setting": "Thermolysin [1]; 190 minutes incubation", "value": 63.9, "unit": "%"},
      {"measurement": "% inhibition", "setting": "Thermolysin [1]; 322 minutes incubation", "value": 77.7, "unit": "%"},
      {"measurement": "loss of enzyme activity due to irreversible inactivation by the cobalt complex", "setting": "Thermolysin [2]; 5 mM cobalt complex, 10 μM thermolysin, overnight at 25C in presence of 50 μM phosphoramidon, after removal of the inhibitor", "value": "no detectable loss of enzyme activity"},
      {"measurement": "cobalt complexes bound to the enzyme", "setting": "Thermolysin [2]; active enzyme, active site protected by phosphoramidon", "value": "two"},
      {"measurement": "equivalents of the cobalt compound bound for each enzyme molecule", "setting": "Thermolysin [2]; thermolysin completely inactivated by the cobalt complex", "value": "three"},
      {"measurement": "activity relative to control", "setting": "Human a-thrombin", "value": 0, "unit": "%"},
      {"measurement": "thrombin activity after incubation", "setting": "Human a-thrombin", "value": "completely inactive"},
      {"measurement": "lowest cobalt concentration found to inhibit the protein", "setting": "Human a-thrombin; range 2.4 mM to 2.4 nM, 12 hour incubation at 25C", "value": 24, "unit": "µM"},
      {"measurement": "inhibition at lower incubation temperature", "setting": "Human a-thrombin; range of cobalt concentrations, 3 hours at 5C, activity determined at 25C", "value": "Partial inhibition"},
      {"measurement": "cobalts per enzyme", "setting": "thrombin", "value": "5-8"},
      {"measurement": "half-life of exchange of ammonia for imidazole", "setting": "[3]", "value": "under an hour"}
    ]},
    {"compound": "CC(=O)C=C(C)NCCNC(C)=CC(C)=O", "note": "[cobalt-free ligand, acetylacetone etlhylenediamine]", "values": [
      {"measurement": "thrombin activity after incubation", "setting": "Human a-thrombin", "value": "no effect"}
    ]},
    {"compound": "Co(II)hydroxypropyl acacen", "values": [
      {"measurement": "% inhibition of CA", "setting": "[4]; 48 hours incubation", "value": 33.8, "unit": "%"},
      {"measurement": "% inhibition of CA", "setting": "[4]; 96 hours incubation", "value": 43.2, "unit": "%"},
      {"measurement": "activity relative to control", "setting": "Human a-thrombin", "value": 42, "unit": "%"}
    ]},
    {"compound": "[Co(III)hydroxypropylacacen(NH3)2 ]CH3 COO [Co(III) complex]", "values": [
      {"measurement": "enzyme activity retained after incubation", "setting": "[4]; incubated 48 hours, Tris buffer pH 8, excess complex removed by gel filtration", "value": 100, "unit": "%"}
    ]}
  ]
}
